# Measurements taken from PMC7216467, “Evaluation of neuroprotective and anti-amnesic effects of Elaeagnus umbellata Thunb. On scopolamine-induced memory impairment in mice” (BMC Complementary Medicine and Therapies, 2020).
# Legend:
# [1] = molecular target: T1, Acetyl cholinesterase (Electron-eel Type, VI-S) (Electrophorus electricus, UniProt O42275); assay: biochemical; type: biochemical
# T1 construct: purchased Sigma-Aldrich, Germany
# Description: Ellman assay was used to evaluate E. umbellata fruit extracts and isolated compounds for their anticholinesterase potentials. About 205 μL extract/compound solutions and 5 μL of AChE (0.03 U/mL)/BChE (0.01 U/mL) along with catalyst DTNB (5 μL) were taken in a cuvette and kept at 30 °C in hot water bath for 15 min. […] As a negative control solution all the above mentioned components except extracts and isolated compounds were mixed in the mentioned order.
# V is inhibitor dependent rate of reaction while, Vmax is inhibitor independent rate of reaction.
# mice = details: Swiss albino, mouse, in vivo, po, 72 h
# Description: All animals were then treated orally with different doses of CHF. […] Immediately after dosing, the mice were observed continuously for 4 h for symptoms of toxicity such as motor activity, convulsions, muscle spasm, tremors, sedation, lacrimation, hypnosis, diarrhoea, salivation, and loss of righting reflex. Mice were then kept under observation up to 72 h for any mortality. The CHF. […] Therefore, according to OECD guidelines, CHF.
# [2] = system: scopolamine-induced cognitive impairment in mice; assay: Y-maze test, scopolamine-induced amnesia; type: in vivo
# Description: (§1) After the acclimatization period, in scopolamine-induced amnesia test the Albino male mice were randomly divided into six groups (n = 6) to study the effect of CHF. […] The doses of tested solutions of CHF. […] The treatments were continued for 8 days. In the Y-maze and Novel object recognition tests, scopolamine (1 mg/kg, i.p.) was given to the different groups only on the 8th day, 30 min after the respective treatments, to induce cognitive deficit in mice. One hour after administration of the drugs all animals were subjected to Y-maze and Novel object recognition test following standard procedure.
# The Y-Maze test was designed to evaluate the short term memory in experimental mice using reported procedure. Y-maze apparatus is Y shaped with three arms of equivalent size, labelled as A, B, and C. Each arm was 20 cm long, 6 cm wide and 15.5 cm high and was oriented at an angle of 120° from the other two. For each animal the Y maze testing was carried out for 5 min. Mice were placed in one arm, and the order and number of arm entries were recorded. An arm entry was considered to be complete when the hind paws of the mice was completely inside a given arm while alternation was defined as consecutive entries by a mouse into the three different arms. The arena was cleaned using 70% v/v ethanol between each trial to avoid olfactory cues. The escape latency (second) on day 1–5 were recorded for all animals. At the end of 5th day, the spontaneous alteration behavior study was conducted. In spontaneous alteration study, each animal was placed at the center of the Y-Maze apparatus and allowed to move freely through the maze. The series of arm entries were visually recorded. To start behavioral test the mice was set in one arm and recorded the number of arm entries, same arm returns (SAR), and alternate arm returns (AAR) were measured. Percent spontaneous alternation performance (SAP) was calculated by the following formula: 5 %SAP=Active alterationstotal alterations/Possible alterationstotalarmentries−2x100
# [3] = system: scopolamine-induced cognitive impairment in mice; assay: Novel object recognition test, scopolamine-induced amnesia; type: in vivo
# Description: as §1
# The detail methodology published, was followed while performing the novel object recognition (NORT) test. NORT consisting of habituation, sample, and test phases. On the day before test, mice were allowed to explore the box (without any object) for 2 min. On the day of test after habituation the sample phase was carried out 60 min after the last treatment on the 8th day. In sample phase each mouse was placed in an open field with two identical objects (plastic ball) for 5 min. The mouse was then returned to its home cage. The apparatus was comprised of a white coloured plywood box (40 cm × 40 cm × 66 cm) with a network floors that could be effortlessly cleaned (with 70%v/v ethanol) after every trial. The apparatus was illuminated by a 60 W light suspended 50 cm over the crate. The arena and objects were cleaned with 70% v/v ethanol between trials to avoid olfactory cues. For short-term memory, the test phase was performed 5 min after the sample phase. In the test phase, each mouse was placed again in the open field in which one of the identical objects had been replaced with a novel object (plastic square). The location of the object was counterbalanced so that one half of the mice in each group saw the novel object on the left side of the box arena, and the other half saw the novel object on the right side of the box arena to eliminate bias of sides. NORT can also be used for encoding and retrieval of spatial memory (long-term memory). A wash-out period of 5 days was allowed before the NORT to assess long-term memory in mice. The procedure was the same as that for short-term memory except that mice were presented in the test phase 24 h after the sample phase exposure. The time spent exploring each object in each phase was recorded manually using a stopwatch. A mouse was scored as exploring when its head was oriented towards the object within a distance of 2 cm or when the nose was in contact with the object. Parameters including the time (in seconds) spent exploring familiar (F) object, time (in seconds) spent exploring the novel (N) object, and total time (in seconds) spent exploring both objects (N + F) were measured separately.
# AChE = molecular target: T2, AChE (Mus musculus, UniProt P21836); type: in vivo; details: ex vivo, NORT animals, vs scopolamine treated group
# T2 construct: supernatants were collected from homogenized part of brain tissues; from tissue; host or cells: mouse frontal cortex and hippocampus homogenate supernatant
# T2 sequence (P21836 32-614): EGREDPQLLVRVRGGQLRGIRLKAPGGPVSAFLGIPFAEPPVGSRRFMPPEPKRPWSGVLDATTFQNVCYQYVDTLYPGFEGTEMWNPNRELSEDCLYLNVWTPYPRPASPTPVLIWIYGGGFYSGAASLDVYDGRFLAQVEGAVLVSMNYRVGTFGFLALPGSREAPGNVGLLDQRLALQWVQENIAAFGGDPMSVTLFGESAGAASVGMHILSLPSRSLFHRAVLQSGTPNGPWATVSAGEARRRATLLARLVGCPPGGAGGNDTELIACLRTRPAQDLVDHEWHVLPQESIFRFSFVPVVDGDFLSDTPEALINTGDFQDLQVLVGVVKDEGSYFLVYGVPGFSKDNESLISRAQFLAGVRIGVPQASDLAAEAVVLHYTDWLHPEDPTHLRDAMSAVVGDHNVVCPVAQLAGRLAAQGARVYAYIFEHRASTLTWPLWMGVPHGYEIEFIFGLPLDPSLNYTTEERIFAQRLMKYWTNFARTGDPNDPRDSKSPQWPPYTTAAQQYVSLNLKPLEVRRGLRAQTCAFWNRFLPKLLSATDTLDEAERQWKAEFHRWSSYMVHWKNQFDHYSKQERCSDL
# Description: (§2) The frontal cortex (FC) and hippocampus (HC) were dissected out in ice cold 0.1 M phosphate buffer saline (pH 8.0). The tissues were weighed and 20 mg tissue/mL homogenate of brain samples was prepared in phosphate buffer (pH 8.0). The homogenates were centrifuged at 10,000 rpm for 10 min at 4 °C, and the resulting supernatant was used for the estimation of anti-cholinesterase activity following Ellman’s and antioxidants assays.
# (§3) Ex vivo analysis of cholinesterase inhibitory potentials was also measured to check the cholinergic hypo function in animal model using the isolated compound CGA and CHF extract.
# BChE = molecular target: T3, BChE (Mus musculus, UniProt Q03311); type: in vivo; details: ex vivo, NORT animals, vs scopolamine treated group
# T3 construct: supernatants were collected from homogenized part of brain tissues; from tissue; host or cells: mouse frontal cortex and hippocampus homogenate supernatant
# Description: as §2, §3
# [4] = Ex vivo brain DPPH free radicals scavenging activity; type: in vivo, mice
# Description: as §2
# [5] = vs scopolamine (1 mg/kg) group, CHF. Ext 200 mg/kg, CGA 10 and 30 mg/kg, donepezil 2 mg/kg
# T1 sequence (O42275 24-633): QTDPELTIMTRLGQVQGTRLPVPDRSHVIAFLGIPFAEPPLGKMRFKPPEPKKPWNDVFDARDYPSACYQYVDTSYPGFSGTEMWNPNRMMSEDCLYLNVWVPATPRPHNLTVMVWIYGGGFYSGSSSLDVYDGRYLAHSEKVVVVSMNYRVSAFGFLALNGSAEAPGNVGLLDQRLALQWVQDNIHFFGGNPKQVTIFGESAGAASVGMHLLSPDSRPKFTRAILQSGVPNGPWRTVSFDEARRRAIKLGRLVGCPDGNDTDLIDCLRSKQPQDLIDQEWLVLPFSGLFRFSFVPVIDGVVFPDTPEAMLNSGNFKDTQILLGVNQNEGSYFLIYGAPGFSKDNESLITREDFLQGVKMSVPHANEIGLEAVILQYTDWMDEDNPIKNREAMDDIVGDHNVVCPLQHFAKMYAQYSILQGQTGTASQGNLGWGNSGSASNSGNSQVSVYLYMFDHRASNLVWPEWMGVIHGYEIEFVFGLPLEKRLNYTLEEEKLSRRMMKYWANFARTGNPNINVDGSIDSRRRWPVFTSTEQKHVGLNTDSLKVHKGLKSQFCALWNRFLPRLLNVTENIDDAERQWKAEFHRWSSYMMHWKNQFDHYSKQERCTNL
# T3 sequence (Q03311 30-603): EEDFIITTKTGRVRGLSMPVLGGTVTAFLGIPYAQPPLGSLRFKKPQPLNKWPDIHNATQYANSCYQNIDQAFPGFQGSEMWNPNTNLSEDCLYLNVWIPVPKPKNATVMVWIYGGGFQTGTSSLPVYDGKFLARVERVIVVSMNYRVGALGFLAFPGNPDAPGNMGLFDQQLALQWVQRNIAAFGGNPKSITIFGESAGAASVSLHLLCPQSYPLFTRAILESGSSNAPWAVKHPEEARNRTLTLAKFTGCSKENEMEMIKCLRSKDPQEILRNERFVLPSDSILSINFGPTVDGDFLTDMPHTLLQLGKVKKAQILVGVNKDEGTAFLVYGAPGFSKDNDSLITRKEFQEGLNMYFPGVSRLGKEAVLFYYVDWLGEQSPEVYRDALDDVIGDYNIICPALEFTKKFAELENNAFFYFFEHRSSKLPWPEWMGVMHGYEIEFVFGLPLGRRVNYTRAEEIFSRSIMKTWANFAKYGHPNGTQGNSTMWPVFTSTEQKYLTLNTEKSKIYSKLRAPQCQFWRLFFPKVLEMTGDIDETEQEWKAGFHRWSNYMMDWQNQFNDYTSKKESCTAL
structure (smiles),measurement,setting,value
"O=C(/C=C/c1ccc(O)c(O)c1)O[C@@H]1C[C@](O)(C(=O)O)C[C@@H](O)[C@H]1O [Compound-I, Chlorogenic acid]",% AChE Mean ± SEM,[1]; 31.05 µg/mL,50±0.4^ ns %
same,% AChE Mean ± SEM,[1]; 62.5 µg/mL,59±0.3 %
same,% AChE Mean ± SEM,[1]; 125 µg/mL,68±0.4 %
same,% AChE Mean ± SEM,[1]; 250 µg/mL,76±0.5 %
same,% AChE Mean ± SEM,[1]; 500 µg/mL,82±0.1 %
same,% AChE Mean ± SEM,"[1]; 1000 µg/mL, listed as Compound -I",90±0.2^ns %
same,% AChE Mean ± SEM,"[1]; 1000 µg/mL, listed as Compound I",90 ± 0.2%
same,IC50,"[1]; linear regression, read-out: AChE IC50 (converted)",87.5 µM
same,dose range that remained safe and nontoxic,mice,up to 300 mg/kg
same,escape latency,"[2]; day 1-5, vs scopolamine treated group",significant decline (p < 0.001)
same,total numbers of entries into arms,[2]; treated groups compared to control group,non-significant (p > 0.05) decrease
same,percentage of alternate arm returns,[2]; [5],significant (*p<0.05; **p < 0.01) increase
same,percentage of same arm returns,[2]; [5],significant (p < 0.01) reduction
same,"time for exploration of novel object, test phase, long term memory","[3]; CHF. Ext 100 & 200 mg/kg, CGA 10 & 30 mg/kg, donepezil 2 mg/kg","significant (*p < 0.05, **p < 0.01) increase"
same,"%DI, long term memory","[3]; CHF. Ext 100, 200 mg/kg, CGA 10 & 30 mg/kg, donepezil 2 mg/kg","significant (*p < 0.05, **p < 0.01) increase"
same,"time with novel object, test phase, short term memory","[3]; vs scopolamine group (*p < 0.05, **p < 0.01), CHF. Ext 50, 100, 200 mg/kg, CGA 10 and 30 mg/kg, donepezil 2 mg/kg",more time with novel object
same,"time for exploration of two objects, sample phase, short term memory",[3]; vs scopolamine treated group,no significant difference
same,"total time spent exploring the two identical objects, sample phase, long term memory",[3]; vs scopolamine treated group,no significant differences
same,% AChE activity in cortex and hippocampus,AChE,significantly (***p < 0.001; **p < 0.01) lower
same,% BChE activity in cortex and hippocampus,BChE,significantly (***p < 0.001; **p < 0.01) lower
same,% anti-radicals activities (DPPH) in cortex,"[4]; NORT animals, cortex",51.43 ± 2.88%
same,% anti-radicals activities (DPPH) in hippocampus,"[4]; NORT animals, hippocampus",65.36 ± 1.45%
same,% DPPH inhibition potential in cortex,"[4]; Y-maze test animals, frontal cortex",47.85 ± 2.11%
same,% DPPH inhibition potential in hippocampus,"[4]; Y-maze test animals, hippocampus",44.12 ± 1.77%
